Laboratory results as given in US20250332178A1, “METHODS OF TREATING MYCOBACTERIAL INFECTIONS USING TETRACYCLINE COMPOUNDS” (priority 2018, published 2025).
Values after ≈ are worked out from the molar mass of the structure shown. Read-outs that look alike come from different tables or passages of the source.

Assays:
[1] = test system: rapid-growing mycobacteria (RGM) isolates; test: MIC (CLSI broth dilution), all RGM isolates; assay type: cell-based, nontuberculous mycobacteria; details: all 50 RGM isolates
M. abscessus complex = test: MIC (CLSI broth dilution), RGM isolates; assay type: cell-based; details: Mycobacteroides abscessus, read-out: MIC
M. chelonae = test: MIC (CLSI broth dilution), RGM isolates; assay type: cell-based; details: Mycobacteroides chelonae, read-out: MIC
M. fortuitum group = test: MIC (CLSI broth dilution), RGM isolates; assay type: cell-based; details: Mycolicibacterium fortuitum, read-out: MIC
M. immunogenum group = test: MIC (CLSI broth dilution), RGM isolates; assay type: cell-based; details: M. immunogenum, read-out: MIC
M. mucogenium group = test: MIC (CLSI broth dilution), RGM isolates; assay type: cell-based; details: read-out: MIC
M. smegmatis group = test: MIC (CLSI broth dilution), RGM isolates; assay type: cell-based; details: Mycolicibacterium smegmatis, read-out: MIC
M. arupense = test: MIC (CLSI broth dilution), slow-growing NTM isolates; assay type: cell-based; details: isolate 11, Other; read-out: MIC
M. simiae = test: as above; assay type: cell-based; details: read-out: MIC
M. abscessus = details: strains of M. abscessus; Wallace et al.; cited from earlier work

With CN(C)c1ccc(O)c2c1C[C@H]1C[C@H]3[C@H](N(C)C)C(O)=C(C(N)=O)C(=O)[C@@]3(O)C(O)=C1C2=O [minocycline] the MIC50 ([1]; read-out: MIC50) was 8 µg/mL (≈ 17.5 µM), the MIC90 ([1]; read-out: MIC90) was greater than 8 µg/mL and the MIC (M. abscessus complex; isolate 1, M. abscessus complex, erm gene type MAB30) was greater than 8 µg/mL. The MIC (M. abscessus complex; isolate 2, M. abscessus complex, erm gene type MAB30) was 8 µg/mL (≈ 17.5 µM), the MIC (M. abscessus complex; isolate 3, M. abscessus complex, erm gene type MAB30) was greater than 8 µg/mL and the MIC (M. abscessus complex; isolate 4, M. abscessus complex, erm gene type massiliense) was 4 µg/mL (≈ 8.74 µM). For the same compound, the MIC (M. abscessus complex; isolate 5, M. abscessus complex, erm gene type massiliense/subsp. abs hybrid) was greater than 8 µg/mL, the MIC (M. abscessus complex; isolate 6, M. abscessus complex, erm gene type Type 1 abscessus) was greater than 8 µg/mL and the MIC (M. abscessus complex; isolate 7, M. abscessus complex, erm gene type Type 1 abscessus) was 8 µg/mL (≈ 17.5 µM). For the same compound, the MIC (M. abscessus complex; isolate 8, M. abscessus complex, erm gene type Type 1 abscessus) was greater than 8 µg/mL, the MIC (M. abscessus complex; isolate 9, M. abscessus complex, erm gene type Type 1 abscessus) was greater than 8 µg/mL and the MIC (M. abscessus complex; isolate 10, M. abscessus complex, erm gene type Type 1 abscessus) was greater than 8 µg/mL. The MIC (M. abscessus complex; isolate 11, M. abscessus complex, erm gene type Type 6 abscessus) was 4 µg/mL (≈ 8.74 µM), the MIC (M. abscessus complex; isolate 12, M. abscessus complex, erm gene type Type 6 abscessus) was greater than 8 µg/mL and the MIC (M. abscessus complex; isolate 13, M. abscessus complex, erm gene type Type 6 abscessus) was greater than 8 µg/mL. The MIC (M. abscessus complex; isolate 14, M. abscessus complex, erm gene type Type 6 abscessus) was 4 µg/mL (≈ 8.74 µM), the MIC (M. abscessus complex; isolate 15, M. abscessus complex, erm gene type Type 7 abscessus) was 8 µg/mL (≈ 17.5 µM) and the MIC (M. abscessus complex; isolate 16, M. abscessus complex, erm gene type Type 7 abscessus) was greater than 8 µg/mL. It also gave an MIC (M. abscessus complex; isolate 17, M. abscessus complex, erm gene type Type 8 abscessus) of 4 µg/mL (≈ 8.74 µM), an MIC (M. chelonae; isolate 18, M. chelonae) greater than 8 µg/mL and an MIC (M. chelonae; isolate 19, M. chelonae) greater than 8 µg/mL. For the same compound, the MIC (M. chelonae; isolate 20, M. chelonae) was greater than 8 µg/mL, the MIC (M. chelonae; isolate 21, M. chelonae) was greater than 8 µg/mL and the MIC (M. chelonae; isolate 22, M. chelonae) was greater than 8 µg/mL. The MIC (M. fortuitum group; isolate 23, M. fortuitum group, M. fortuitum) was no more than 0.5 µg/mL, the MIC (M. fortuitum group; isolate 24, M. fortuitum group, M. fortuitum) was no more than 0.5 µg/mL and the MIC (M. fortuitum group; isolate 25, M. fortuitum group, M. fortuitum) was greater than 8 µg/mL. For the same compound, the MIC (M. fortuitum group; isolate 26, M. fortuitum group, M. porcinum) was 1 µg/mL (≈ 2.19 µM), the MIC (M. fortuitum group; isolate 27, M. fortuitum group, M. porcinum) was 4 µg/mL (≈ 8.74 µM) and the MIC (M. fortuitum group; isolate 28, M. fortuitum group, M. porcinum/M. boenickei) was 1 µg/mL (≈ 2.19 µM). For the same compound, the MIC (M. fortuitum group; isolate 29, M. fortuitum group, M. porcinum/M. boenickei) was 4 µg/mL (≈ 8.74 µM), the MIC (M. fortuitum group; isolate 30, M. fortuitum group, M. porcinum/M. boenickei) was 8 µg/mL (≈ 17.5 µM) and the MIC (M. fortuitum group; isolate 31, M. fortuitum group, M. senegalense) was no more than 0.5 µg/mL. The MIC (M. fortuitum group; isolate 32, M. fortuitum group, M. senegalense) was no more than 0.5 µg/mL, the MIC (M. fortuitum group; isolate 33, M. fortuitum group, M. senegalense) was no more than 0.5 µg/mL and the MIC (M. fortuitum group; isolate 34, M. fortuitum group, M. senegalense) was no more than 0.5 µg/mL. It also gave an MIC (M. immunogenum group; isolate 35, M. immunogenum group) greater than 8 µg/mL, an MIC (M. immunogenum group; isolate 36, M. immunogenum group) of no more than 0.5 µg/mL and an MIC (M. immunogenum group; isolate 37, M. immunogenum group) greater than 8 µg/mL. It also gave an MIC (M. immunogenum group; isolate 38, M. immunogenum group) greater than 8 µg/mL, an MIC (M. mucogenium group; isolate 39, M. mucogenicum group, M. mucogenicum) of no more than 0.5 µg/mL and an MIC (M. mucogenium group; isolate 40, M. mucogenicum group, M. mucogenicum) of no more than 1 µg/mL. For the same compound, the MIC (M. mucogenium group; isolate 41, M. mucogenicum group, M. mucogenicum) was no more than 0.5 µg/mL, the MIC (M. mucogenium group; isolate 42, M. mucogenicum group, M. mucogenicum) was no more than 0.5 µg/mL and the MIC (M. mucogenium group; isolate 43, M. mucogenicum group, M. phocaicum) was no more than 0.5 µg/mL. It also gave an MIC (M. mucogenium group; isolate 44, M. mucogenicum group, M. phocaicum) greater than 8 µg/mL, an MIC (M. mucogenium group; isolate 45, M. mucogenicum group, M. phocaicum) greater than 8 µg/mL and an MIC (M. mucogenium group; isolate 46, M. mucogenicum group, M. phocaicum) of 8 µg/mL (≈ 17.5 µM). It also gave an MIC (M. mucogenium group; isolate 47, M. mucogenicum group, M. phocaicum) of no more than 0.5 µg/mL, an MIC (M. mucogenium group; isolate 48, M. mucogenicum group, M. phocaicum) of 2 µg/mL (≈ 4.37 µM) and an MIC (M. smegmatis group; isolate 49, M. smegmatis group, M. goodii) of no more than 0.5 µg/mL. The MIC (M. smegmatis group; isolate 50, M. smegmatis group, M. wolinskyi) was no more than 0.5 µg/mL, the MIC (M. arupense) was 8 µg/mL (≈ 17.5 µM) and the MIC (M. simiae; isolate 13, Other) was 4 µg/mL (≈ 8.74 µM). For the same compound, the MIC (M. simiae; isolate 14, Other) was greater than 8 µg/mL and the MIC (M. simiae; isolate 15, Other) was greater than 8 µg/mL.

For CN(C)[C@@H]1C(=O)C(C(N)=O)=C(O)[C@@]2(O)C(=O)C3=C(O)c4c(O)cccc4[C@@](C)(O)[C@H]3C[C@@H]12 [tetracycline], the “in vitro activity (in words)” value (M. abscessus) is listed as “very low activity”.
